Source: US4971985A, “Pyridylketoxime ether compound and pharmaceutical composition containing it” (Kaken Pharmaceutical Co., Ltd., priority 1988, dated 1990)
Counter-ions that a name gives are not always drawn. Like-named read-outs stand apart in the source and are kept apart here.

Assays:
erythrocytes = experiment: Activity to improve the deformation of erythrocytes (time to pass through millipore filter); type: cell-based, male New Zealand rabbit; conditions: rabbit washed erythrocytes treated with Ca^2+ and ionofore A-23187; 5 μm millipore filter
Experimental: A suspension of washed erythrocytes was prepared from a blood collected by heart puncture from a male New Zealand rabbit having a body weight of about 3 kg and having Heparin added thereto, by using a Krebs-Henseleit solution containing 20 mM of HEPES. […] As a control drug, W-7 was used.

[1] = molecular target: T1, bovine cerebral calmodulin (Bos taurus, UniProt P62157); experiment: Calmodulin antagonism (inhibition of 5'-AMP formation by calmodulin-stimulated c-AMP-PDE); type: biochemical
T1 construct: bovine cerebral calmodulin; from tissue; host or cells: bovine brain (calmodulin); bovine myocardium (PDE)
From the text: As a control drug, W-7 [N-(6-aminohexyl)-5-chloro-1-naphthalenesulfonamide]was used.

Ca^2 + Channel = molecular target: T2, Ca^2 + Channel (Cavia porcellus, UniProt O35505); experiment: Calcium channel antagonism (isolated guinea pig cecum string, calcium chloride concentration reaction curve); type: cell-based, male Hartley guinea pig; conditions: high potassium Krebs solution, 32° C, pretreatment 30 minutes, read-out: Ca^2 + Channel antagonism (pA2) (converted)
T2 construct: The cecum string of a male Hartley guinea pig; from tissue; host or cells: isolated cecum string (taenia caeci) of male Hartley guinea pig
T2 sequence (O35505 whole entry): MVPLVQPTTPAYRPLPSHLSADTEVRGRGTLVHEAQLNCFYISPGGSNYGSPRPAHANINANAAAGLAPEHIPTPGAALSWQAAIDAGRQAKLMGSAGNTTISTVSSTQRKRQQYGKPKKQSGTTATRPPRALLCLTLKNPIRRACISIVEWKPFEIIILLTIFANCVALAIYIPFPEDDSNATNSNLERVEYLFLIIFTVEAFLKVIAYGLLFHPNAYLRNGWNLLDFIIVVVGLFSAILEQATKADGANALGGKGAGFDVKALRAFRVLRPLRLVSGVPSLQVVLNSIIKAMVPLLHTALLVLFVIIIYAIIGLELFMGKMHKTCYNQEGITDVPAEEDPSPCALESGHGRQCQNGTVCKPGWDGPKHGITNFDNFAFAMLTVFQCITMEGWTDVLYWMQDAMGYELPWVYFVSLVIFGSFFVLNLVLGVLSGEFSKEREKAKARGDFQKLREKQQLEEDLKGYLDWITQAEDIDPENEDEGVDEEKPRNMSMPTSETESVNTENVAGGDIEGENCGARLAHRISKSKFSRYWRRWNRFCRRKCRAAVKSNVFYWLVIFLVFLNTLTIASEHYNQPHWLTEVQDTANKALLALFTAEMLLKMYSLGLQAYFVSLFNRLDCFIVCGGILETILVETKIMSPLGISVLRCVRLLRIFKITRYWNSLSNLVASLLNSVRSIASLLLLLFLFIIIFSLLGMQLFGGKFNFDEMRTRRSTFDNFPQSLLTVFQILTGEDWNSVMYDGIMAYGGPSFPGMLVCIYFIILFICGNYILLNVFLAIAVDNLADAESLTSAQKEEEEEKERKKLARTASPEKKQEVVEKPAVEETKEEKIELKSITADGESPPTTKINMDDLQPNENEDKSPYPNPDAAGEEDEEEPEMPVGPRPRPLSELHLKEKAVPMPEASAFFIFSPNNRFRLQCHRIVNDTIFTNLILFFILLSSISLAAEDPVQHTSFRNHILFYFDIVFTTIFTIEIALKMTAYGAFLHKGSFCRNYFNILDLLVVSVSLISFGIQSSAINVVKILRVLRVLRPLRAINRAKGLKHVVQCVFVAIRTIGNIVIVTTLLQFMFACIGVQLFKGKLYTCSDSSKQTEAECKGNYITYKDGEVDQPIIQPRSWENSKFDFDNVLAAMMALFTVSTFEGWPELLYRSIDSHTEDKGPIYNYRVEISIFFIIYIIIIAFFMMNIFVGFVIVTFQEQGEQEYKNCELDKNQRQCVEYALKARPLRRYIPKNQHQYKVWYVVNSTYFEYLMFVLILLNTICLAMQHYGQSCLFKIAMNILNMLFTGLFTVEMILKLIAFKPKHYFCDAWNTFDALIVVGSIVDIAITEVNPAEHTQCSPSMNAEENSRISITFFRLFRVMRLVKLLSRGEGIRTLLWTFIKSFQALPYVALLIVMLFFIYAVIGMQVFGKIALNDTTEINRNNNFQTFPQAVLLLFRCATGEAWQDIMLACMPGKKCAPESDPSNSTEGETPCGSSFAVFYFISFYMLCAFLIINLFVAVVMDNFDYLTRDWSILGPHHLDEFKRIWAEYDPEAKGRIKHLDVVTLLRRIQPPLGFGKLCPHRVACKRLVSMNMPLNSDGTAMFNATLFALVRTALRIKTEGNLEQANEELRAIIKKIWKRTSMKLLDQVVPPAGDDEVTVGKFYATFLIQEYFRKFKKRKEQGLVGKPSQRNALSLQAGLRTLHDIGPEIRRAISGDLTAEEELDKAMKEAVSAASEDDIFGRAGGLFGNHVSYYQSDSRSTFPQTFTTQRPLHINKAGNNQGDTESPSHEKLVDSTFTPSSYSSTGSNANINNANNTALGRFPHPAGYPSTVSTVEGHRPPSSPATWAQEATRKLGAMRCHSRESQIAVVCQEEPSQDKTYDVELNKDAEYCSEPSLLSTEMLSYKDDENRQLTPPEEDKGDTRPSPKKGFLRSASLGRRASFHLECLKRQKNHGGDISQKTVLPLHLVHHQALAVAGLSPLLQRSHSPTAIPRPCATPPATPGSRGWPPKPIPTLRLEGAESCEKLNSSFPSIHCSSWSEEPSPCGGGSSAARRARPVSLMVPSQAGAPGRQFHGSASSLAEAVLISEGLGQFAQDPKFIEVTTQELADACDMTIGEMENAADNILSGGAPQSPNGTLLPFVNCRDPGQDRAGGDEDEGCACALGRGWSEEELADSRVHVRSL
Experimental: The cecum string of a male Hartley guinea pig having a body weight of 350 g was taken out, and while air was supplied,.it was hanged with a load of 0.5 g in a high potassium Krebs solution bath (32° C) having calcium removed. Calcium chloride was accumulatively added, and the reaction was recorded by means of an isotonic tranduser (manufactured by Nippon Koden K. K.) to obtain a constant standard concentration reaction curve.
On the other hand, pretreatment with a compound of the present invention was conducted for 30 minutes, and then calcium chloride was added to the reaction bath, and from concetration reaction curve thereby obtained, pA2 was obtained.

[2] = 50 m units bovine cerebral calmodulin, 0.1 mM Ca^2+, 1 μM c-AMP, 0.875 m units bovine myocardial c-AMP-PDE, read-out: Calmodulin antagonism IC50

| IC50 [1, 2] [nM] | SMILES | Activity to improve the deformation of erythrocytes [pass through time (sec.)] (erythrocytes) [s] | Kb (Ca^2 + Channel) [nM] | IC50 [1] [nM] |
| --- | --- | --- | --- | --- |
| 6300 | Clc1cccc(CCON=C(c2ccccc2)c2cccnc2)c1 [Compound 47] | 15 |  |  |
| 6500 | FC(F)(F)c1cccc(C(=NOCCc2ccccc2)c2cccnc2)c1 [Compound 64] | 16 | 871 |  |
| 5000 | Fc1cccc(C(=NOCCc2ccccc2)c2cccnc2)c1 [Compound 63] | 18 | 603 |  |
| 8800 | Clc1ccccc1CCON=C(c1ccccc1)c1cccnc1 [Compound 46] | 18 |  |  |
|  | NCCCCCCNS(=O)(=O)c1cccc2c(Cl)cccc12 [Compound W-7, N-(6-aminohexyl)-5-chloro-1-naphthalenesulfonamide, reference compound] | 25 |  |  |
|  | CNc1ccc2oc(C[C@H]3O[C@@]4(CC[C@H]3C)O[C@H]([C@H](C)C(=O)c3ccc[nH]3)[C@H](C)C[C@H]4C)nc2c1C(=O)O [Calcium salt of A 23187, reference compound] | 39 |  |  |
|  | c1ccc(CCON=C(c2cccnc2)c2cccs2)cc1 [Compound 66] | 17 | 525 |  |
|  | O=[N+]([O-])c1cccc(C(=NOCCc2ccccc2)c2cccnc2)c1 [Compound 65] | 18 | 692 |  |
| 8000 | Cc1ccc(C)c(C(=NOCCc2ccccc2)c2cccnc2)c1 [Compound 62] | 18 | 933 |  |
|  | COc1ccc(CON=C(c2ccccc2)c2ccccn2)cc1OC [Compound 13, O-(3,4-dimethoxybenzyl)-phenyl-2-pyridylketoxime] | 16 | 148 |  |
|  | Clc1ccccc1C(=NOCCc1ccccc1)c1cccnc1 [Compound 58] | 12 |  | 3500 |
|  | c1ccc(C(=NOCc2cccc3ccccc23)c2cccnc2)cc1 [Compound 20, O-(1-naphthylmethyl)-phenyl-3-pyridylketoxime] | 20 | 525 |  |
|  | Clc1ccc(C(=NOCCc2ccccc2)c2cccnc2)cc1 [Compound 57] | 20 |  | 9500 |

| SMILES | IC50 [1, 2] [nM] | Activity to improve the deformation of erythrocytes [pass through time (sec.)] (erythrocytes) [s] | Kb (Ca^2 + Channel) [nM] | IC50 [1] [nM] |
| --- | --- | --- | --- | --- |
| Cc1ccccc1CCON=C(c1ccccc1)c1cccnc1 [Compound 43, O-[2-(2-methylphenyl)ethyl]-phenyl-3-pyridylketoxime] | 4100 | 14 | 479 |  |
| c1ccc(OCCON=C(c2ccccc2)c2cccnc2)cc1 [Compound 26, O-[(2-phenoxy)ethyl]-phenyl-3-pyridylketoxime] | 10000 | 18 | 234 |  |
| COc1ccc(CON=C(c2ccccc2)c2cccnc2)cc1OC [Compound 14, O-(3,4-dimethoxybenzyl)-phenyl-3-pyridiylketoxime] | 8000 | 15 | 437 |  |
| c1ccc(CCON=C(c2ccccc2)c2cccnc2)cc1 [Compound 1, O-(2-phenylethyl)-phenyl-3-pyridylketoxime] | 3800 | 12 | 275 |  |
